What was measured:
Type in all cases: biochemical
Src = Src (Homo sapiens, UniProt P12931); experiment: Kinase activity assay, Src; settings: under the test conditions employed; read-out: activity toward kinase Src, IC50
Source text: (§1) Assays for the activity of kinases, including, but not limited to, B-Raf, B-Raf V600E, B-Raf […] and c-Raf-1 are known in the art, for example as described in U.S. patent application Ser. No. 11/473,347 (see Iso, PCT publication WO2007002433), the disclosure of which is hereby incorporated by reference in its entirety.

c-Raf-1 = c-Raf-1 (Homo sapiens, UniProt P04049); experiment: Kinase activity assay, c-Raf-1; settings: under the test conditions employed; read-out: activity toward kinase c-Raf-1, IC50
Source text: as §1

B-Raf V600E = B-Raf V600E (Homo sapiens, UniProt P15056, V600E); experiment: Kinase activity assay, B-Raf V600E; settings: under the test conditions employed; read-out: activity toward kinase B-Raf V600E, IC50
Source text: as §1

Flt1 = Flt1 (Homo sapiens, UniProt P17948); experiment: Kinase activity assay, Flt1; settings: under the test conditions employed; read-out: activity toward kinase Flt1, IC50
Source text: as §1

B-Raf = B-Raf (Homo sapiens, UniProt P15056); experiment: Kinase activity assay, B-Raf; settings: under the test conditions employed; read-out: activity toward kinase B-Raf, IC50
Source text: as §1

Fms = Fms (Homo sapiens, UniProt P07333); experiment: Kinase activity assay, Fms; settings: under the test conditions employed; read-out: activity toward kinase Fms, IC50
Source text: as §1

Kit = Kit (Homo sapiens, UniProt P10721); experiment: Kinase activity assay, Kit; settings: under the test conditions employed; read-out: activity toward kinase Kit, IC50
Source text: as §1

Kdr = Kdr (Homo sapiens, UniProt P35968); experiment: Kinase activity assay, Kdr; settings: under the test conditions employed; read-out: activity toward kinase Kdr, IC50
Source text: as §1

TEC = target: T1, TEC (Homo sapiens, UniProt P42680); experiment: Kinase activity assay, TEC; settings: under the test conditions employed; read-out: activity toward kinase TEC, IC50
T1 sequence (P42680 1-631): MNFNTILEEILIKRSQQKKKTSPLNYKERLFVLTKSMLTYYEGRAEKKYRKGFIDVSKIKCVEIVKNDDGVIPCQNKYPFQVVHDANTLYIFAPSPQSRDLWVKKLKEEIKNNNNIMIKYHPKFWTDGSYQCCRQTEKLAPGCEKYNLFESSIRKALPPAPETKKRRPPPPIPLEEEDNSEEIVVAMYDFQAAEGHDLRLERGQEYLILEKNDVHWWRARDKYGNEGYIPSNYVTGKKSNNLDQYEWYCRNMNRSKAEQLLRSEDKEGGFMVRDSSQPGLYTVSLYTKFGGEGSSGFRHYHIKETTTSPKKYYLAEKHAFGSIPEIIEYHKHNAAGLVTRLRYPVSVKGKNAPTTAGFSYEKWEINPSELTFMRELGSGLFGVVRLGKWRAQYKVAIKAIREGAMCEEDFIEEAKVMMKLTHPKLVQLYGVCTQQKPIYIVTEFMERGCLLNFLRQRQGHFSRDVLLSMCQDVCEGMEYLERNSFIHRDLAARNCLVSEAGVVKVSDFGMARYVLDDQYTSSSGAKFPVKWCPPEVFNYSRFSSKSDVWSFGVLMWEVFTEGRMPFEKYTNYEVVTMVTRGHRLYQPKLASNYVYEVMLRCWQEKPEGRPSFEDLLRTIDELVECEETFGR
Source text: as §1

B-Raf V600E/T529I = B-Raf V600E/T529I (Homo sapiens, UniProt P15056, T529I/V600E); experiment: Kinase activity assay, B-Raf V600E/T529I; settings: under the test conditions employed; read-out: activity toward kinase B-Raf V600E/T529I, IC50
Source text: as §1

Btk = Btk (Homo sapiens, UniProt Q06187); experiment: Kinase activity assay, Btk; settings: under the test conditions employed; read-out: activity toward kinase Btk, IC50
Source text: as §1

HGK = HGK (Homo sapiens, UniProt O95819); experiment: Kinase activity assay, HGK; settings: under the test conditions employed; read-out: activity toward kinase HGK, IC50
Source text: as §1

Jnk1 = Jnk1 (Homo sapiens, UniProt P45983); experiment: Kinase activity assay, Jnk1; settings: under the test conditions employed; read-out: activity toward kinase Jnk1, IC50
Source text: as §1

Sequence of c-Raf-1 (P04049 whole entry): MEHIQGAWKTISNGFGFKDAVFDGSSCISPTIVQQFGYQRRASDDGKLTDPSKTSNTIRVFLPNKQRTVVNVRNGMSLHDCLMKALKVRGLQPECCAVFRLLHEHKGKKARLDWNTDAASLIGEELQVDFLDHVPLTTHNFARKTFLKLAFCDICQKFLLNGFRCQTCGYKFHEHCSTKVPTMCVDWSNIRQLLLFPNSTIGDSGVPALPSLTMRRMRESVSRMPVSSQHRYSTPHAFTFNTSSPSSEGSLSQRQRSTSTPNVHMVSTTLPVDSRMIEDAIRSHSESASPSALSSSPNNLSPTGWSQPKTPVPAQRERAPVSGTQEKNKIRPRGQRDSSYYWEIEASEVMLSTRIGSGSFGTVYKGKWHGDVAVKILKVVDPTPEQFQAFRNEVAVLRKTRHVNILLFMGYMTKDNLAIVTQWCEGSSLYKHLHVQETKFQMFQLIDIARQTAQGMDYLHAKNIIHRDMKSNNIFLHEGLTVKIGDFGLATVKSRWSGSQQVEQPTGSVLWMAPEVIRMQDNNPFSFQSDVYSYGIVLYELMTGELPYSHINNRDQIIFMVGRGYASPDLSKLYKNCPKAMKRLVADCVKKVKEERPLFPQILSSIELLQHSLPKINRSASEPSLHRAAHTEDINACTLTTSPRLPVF
Sequence of Flt1 (P17948 27-1338): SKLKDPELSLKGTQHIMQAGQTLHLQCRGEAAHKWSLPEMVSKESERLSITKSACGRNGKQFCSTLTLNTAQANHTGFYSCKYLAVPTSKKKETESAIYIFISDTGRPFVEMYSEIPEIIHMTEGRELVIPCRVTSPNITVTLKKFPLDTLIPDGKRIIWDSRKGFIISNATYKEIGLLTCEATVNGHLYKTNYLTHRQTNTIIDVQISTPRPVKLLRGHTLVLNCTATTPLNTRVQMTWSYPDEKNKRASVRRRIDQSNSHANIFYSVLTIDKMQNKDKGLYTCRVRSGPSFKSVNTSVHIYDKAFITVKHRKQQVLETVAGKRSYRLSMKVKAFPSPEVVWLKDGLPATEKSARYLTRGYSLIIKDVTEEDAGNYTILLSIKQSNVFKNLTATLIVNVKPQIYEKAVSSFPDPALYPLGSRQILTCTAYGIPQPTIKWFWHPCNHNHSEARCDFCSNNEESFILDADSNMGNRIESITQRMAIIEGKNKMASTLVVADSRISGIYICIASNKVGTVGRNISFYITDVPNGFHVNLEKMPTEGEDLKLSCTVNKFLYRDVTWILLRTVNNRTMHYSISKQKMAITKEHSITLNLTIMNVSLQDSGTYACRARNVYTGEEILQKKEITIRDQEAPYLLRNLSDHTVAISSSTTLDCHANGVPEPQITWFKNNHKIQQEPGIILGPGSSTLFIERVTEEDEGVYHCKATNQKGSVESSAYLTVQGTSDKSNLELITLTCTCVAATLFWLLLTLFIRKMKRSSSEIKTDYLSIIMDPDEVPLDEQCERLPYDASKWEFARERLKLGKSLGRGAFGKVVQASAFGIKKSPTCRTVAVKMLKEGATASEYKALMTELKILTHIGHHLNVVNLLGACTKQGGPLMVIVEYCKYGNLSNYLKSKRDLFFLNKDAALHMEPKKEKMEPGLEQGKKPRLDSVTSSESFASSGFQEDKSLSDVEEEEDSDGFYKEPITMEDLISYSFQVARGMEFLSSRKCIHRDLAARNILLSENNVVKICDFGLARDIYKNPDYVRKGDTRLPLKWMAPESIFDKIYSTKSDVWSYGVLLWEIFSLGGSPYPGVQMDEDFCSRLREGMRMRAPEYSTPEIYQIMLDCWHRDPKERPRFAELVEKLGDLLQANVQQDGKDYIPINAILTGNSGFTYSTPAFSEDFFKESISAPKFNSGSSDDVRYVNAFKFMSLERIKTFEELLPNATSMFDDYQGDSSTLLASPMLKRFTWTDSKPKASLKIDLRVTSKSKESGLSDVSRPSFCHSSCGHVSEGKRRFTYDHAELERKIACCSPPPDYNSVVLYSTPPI
Sequence of Fms (P07333 20-972): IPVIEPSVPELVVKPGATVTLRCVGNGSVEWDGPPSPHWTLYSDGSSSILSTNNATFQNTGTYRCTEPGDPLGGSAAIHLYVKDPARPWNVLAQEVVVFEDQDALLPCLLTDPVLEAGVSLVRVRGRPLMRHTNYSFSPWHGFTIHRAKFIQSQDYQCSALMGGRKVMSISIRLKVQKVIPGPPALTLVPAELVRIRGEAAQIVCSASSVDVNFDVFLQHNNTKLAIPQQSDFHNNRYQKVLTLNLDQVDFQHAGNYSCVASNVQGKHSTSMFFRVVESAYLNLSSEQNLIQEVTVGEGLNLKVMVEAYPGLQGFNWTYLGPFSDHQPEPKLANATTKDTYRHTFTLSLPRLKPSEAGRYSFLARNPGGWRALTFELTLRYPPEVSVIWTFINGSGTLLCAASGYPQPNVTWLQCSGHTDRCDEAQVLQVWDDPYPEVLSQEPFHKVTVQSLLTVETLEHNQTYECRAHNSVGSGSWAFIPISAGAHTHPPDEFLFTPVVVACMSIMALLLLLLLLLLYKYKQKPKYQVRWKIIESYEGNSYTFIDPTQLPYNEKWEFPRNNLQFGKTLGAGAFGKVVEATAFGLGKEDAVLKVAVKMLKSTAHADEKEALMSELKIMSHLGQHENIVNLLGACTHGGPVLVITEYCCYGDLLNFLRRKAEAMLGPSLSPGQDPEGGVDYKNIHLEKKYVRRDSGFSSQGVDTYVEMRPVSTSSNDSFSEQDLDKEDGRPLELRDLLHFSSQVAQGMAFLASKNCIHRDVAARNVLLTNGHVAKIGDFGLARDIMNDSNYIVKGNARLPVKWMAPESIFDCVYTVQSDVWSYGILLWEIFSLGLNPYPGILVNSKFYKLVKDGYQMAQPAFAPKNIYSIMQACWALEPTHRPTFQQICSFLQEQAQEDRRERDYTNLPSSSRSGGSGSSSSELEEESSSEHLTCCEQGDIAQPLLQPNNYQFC
Sequence of B-Raf V600E (P15056 whole entry V600E): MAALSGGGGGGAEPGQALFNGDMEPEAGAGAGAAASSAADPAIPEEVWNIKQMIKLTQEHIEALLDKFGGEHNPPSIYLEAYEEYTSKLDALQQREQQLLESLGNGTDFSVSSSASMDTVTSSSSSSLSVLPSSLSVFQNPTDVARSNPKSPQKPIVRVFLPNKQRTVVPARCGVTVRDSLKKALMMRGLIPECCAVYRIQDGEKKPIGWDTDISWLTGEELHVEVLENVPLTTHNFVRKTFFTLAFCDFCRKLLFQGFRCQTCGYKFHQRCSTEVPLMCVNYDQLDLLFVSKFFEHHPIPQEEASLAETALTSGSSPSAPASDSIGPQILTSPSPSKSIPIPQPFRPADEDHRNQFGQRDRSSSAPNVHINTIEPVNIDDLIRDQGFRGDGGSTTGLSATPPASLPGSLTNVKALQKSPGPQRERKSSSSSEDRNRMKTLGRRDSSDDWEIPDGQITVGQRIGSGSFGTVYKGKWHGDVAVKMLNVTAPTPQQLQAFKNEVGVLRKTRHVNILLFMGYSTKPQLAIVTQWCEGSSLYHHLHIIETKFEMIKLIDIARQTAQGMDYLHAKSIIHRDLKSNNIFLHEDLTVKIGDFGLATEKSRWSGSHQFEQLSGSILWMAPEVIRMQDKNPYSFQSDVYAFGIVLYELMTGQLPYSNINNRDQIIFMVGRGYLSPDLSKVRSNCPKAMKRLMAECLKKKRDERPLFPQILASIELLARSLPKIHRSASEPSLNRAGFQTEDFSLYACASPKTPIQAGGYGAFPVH
Sequence of Jnk1 (P45983 whole entry): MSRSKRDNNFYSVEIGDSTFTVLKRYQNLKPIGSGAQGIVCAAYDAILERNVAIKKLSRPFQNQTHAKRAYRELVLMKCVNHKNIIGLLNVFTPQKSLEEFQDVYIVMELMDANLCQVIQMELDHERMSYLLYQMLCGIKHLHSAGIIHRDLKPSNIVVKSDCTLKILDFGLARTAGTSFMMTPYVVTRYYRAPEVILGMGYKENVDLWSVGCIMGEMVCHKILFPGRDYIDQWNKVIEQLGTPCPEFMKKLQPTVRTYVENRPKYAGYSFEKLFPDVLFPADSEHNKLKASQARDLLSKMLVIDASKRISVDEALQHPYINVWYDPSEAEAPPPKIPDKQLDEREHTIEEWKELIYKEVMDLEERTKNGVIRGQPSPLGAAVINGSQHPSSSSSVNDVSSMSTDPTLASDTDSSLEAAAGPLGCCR
Sequence of Src (P12931 whole entry): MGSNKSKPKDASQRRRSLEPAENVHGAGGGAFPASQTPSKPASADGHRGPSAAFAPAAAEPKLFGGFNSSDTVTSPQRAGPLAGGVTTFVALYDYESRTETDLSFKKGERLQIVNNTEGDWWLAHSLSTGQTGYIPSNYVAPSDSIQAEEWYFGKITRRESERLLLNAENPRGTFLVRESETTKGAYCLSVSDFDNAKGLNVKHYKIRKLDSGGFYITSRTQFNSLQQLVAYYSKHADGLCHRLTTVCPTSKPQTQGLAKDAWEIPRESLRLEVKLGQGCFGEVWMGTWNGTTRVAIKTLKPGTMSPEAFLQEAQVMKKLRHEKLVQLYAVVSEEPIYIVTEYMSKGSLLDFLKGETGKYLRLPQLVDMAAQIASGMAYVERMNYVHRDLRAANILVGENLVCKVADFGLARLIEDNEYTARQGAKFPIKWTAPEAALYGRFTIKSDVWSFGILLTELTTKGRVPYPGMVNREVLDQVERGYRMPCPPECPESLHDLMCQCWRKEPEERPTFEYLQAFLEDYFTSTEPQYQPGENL
Sequence of B-Raf (P15056 whole entry): as the sequence (P15056 whole entry V600E) above, with E600V counted along it
Sequence of B-Raf V600E/T529I (P15056 whole entry T529I/V600E): as the sequence (P15056 whole entry V600E) above, with T529I counted along it

| IC50 (Src) [µM] | IC50 (c-Raf-1) [µM] | IC50 (B-Raf V600E) [µM] | IC50 (Flt1) [µM] | IC50 (B-Raf) [µM] | IC50 (Fms) [µM] | IC50 (Kit) [µM] | IC50 (Kdr) [µM] | IC50 (TEC) [µM] | IC50 (B-Raf V600E/T529I) [µM] | IC50 (Btk) [µM] | IC50 (HGK) [µM] | IC50 (Jnk1) [µM] | Compound |
| --- | --- | --- | --- | --- | --- | --- | --- | --- | --- | --- | --- | --- | --- |
| ≤ 10 | ≤ 10 | ≤ 10 | ≤ 10 | ≤ 10 | – | – | – | – | – | – | – | – | N#Cc1cnc2[nH]cc(C(=O)c3c(F)ccc(NS(=O)(=O)c4ccc(C(F)(F)F)cc4)c3F)c2c1 [Compound P-0031, N-[3-(5-Cyano-1H-pyrrolo[2,3-b]pyridine-3-carbonyl)-2,4-difluoro-phenyl]-4-trifluoromethyl-benzenesulfonamide] |
| ≤ 10 | ≤ 10 | ≤ 10 | ≤ 10 | ≤ 10 | ≤ 10 | ≤ 10 | ≤ 10 | ≤ 10 | – | – | – | – | O=C(c1c(F)ccc(NS(=O)(=O)c2cccc(OC(F)F)c2)c1F)c1c[nH]c2ncc(Cl)cc12 [Compound P-0016, N-[3-(5-Chloro-1H-pyrrolo[2,3-b]pyridine-3-carbonyl)-2,4-difluoro-phenyl]-3-difluoromethoxy-benzenesulfonamide] |
| ≤ 10 | ≤ 10 | ≤ 10 | – | ≤ 10 | ≤ 10 | ≤ 10 | ≤ 10 | – | ≤ 10 | – | – | – | O=C(c1c(F)ccc(NS(=O)(=O)c2ccc(-c3cnco3)s2)c1F)c1c[nH]c2ncc(Cl)cc12 [Compound P-0003, 5-Oxazol-5-yl-thiophene-2-sulfonic acid [3-(5-chloro-1H-pyrrolo[2,3-b]pyridine-3-carbonyl)-2,4-difluoro-phenyl]-amide] |
| ≤ 10 | – | ≤ 10 | – | ≤ 10 | ≤ 10 | ≤ 10 | ≤ 10 | – | – | ≤ 10 | – | – | Cc1cnc(-c2cnc3[nH]cc(C(=O)c4c(F)ccc(NS(=O)(=O)c5cccc(OC(F)F)c5)c4F)c3c2)[nH]1 [Compound P-0024, 3-Difluoromethoxy-N-{2,4-difluoro-3-[5-(5-methyl-1H-imidazol-2-yl)-1H-pyrrolo[2,3-b]pyridine-3-carbonyl]-phenyl}-benzenesulfonamide] |
| ≤ 10 | ≤ 10 | ≤ 10 | ≤ 10 | ≤ 10 | ≤ 10 | ≤ 10 | ≤ 10 | – | – | ≤ 10 | ≤ 10 | ≤ 10 | Cn1cc(-c2cnc3[nH]cc(C(=O)c4c(F)ccc(NS(=O)(=O)c5cccc(OC(F)F)c5)c4F)c3c2)cn1 [Compound P-0020] |
| ≤ 10 | ≤ 10 | ≤ 10 | – | ≤ 10 | ≤ 10 | ≤ 10 | ≤ 10 | – | – | ≤ 10 | – | – | CCCc1ccc(S(=O)(=O)Nc2ccc(F)c(C(=O)c3c[nH]c4ncc(-c5ncc(C)[nH]5)cc34)c2F)cc1 [Compound P-0023, N-{2,4-Difluoro-3-[5-(5-methyl-1H-imidazol-2-yl)-1H-pyrrolo[2,3-b]pyridine-3-carbonyl]-phenyl}-4-propyl-benzenesulfonamide] |
| ≤ 10 | ≤ 10 | ≤ 10 | – | ≤ 10 | ≤ 10 | ≤ 10 | ≤ 10 | – | – | ≤ 10 | – | – | O=C(c1c(F)ccc(NS(=O)(=O)c2ccc3nsnc3c2)c1F)c1c[nH]c2ncc(Cl)cc12 [Compound P-0013, Benzo[1,2,5]thiadiazoe-5-sulfonic acid [3-(5-chloro-1H-pyrrolo[2,3-b]pyridine-3-carbonyl)-2,4-difluoro-phenyl]-amide] |
| ≤ 10 | ≤ 10 | ≤ 10 | – | ≤ 10 | ≤ 10 | ≤ 10 | ≤ 10 | – | – | ≤ 10 | – | – | CCCc1ccc(S(=O)(=O)Nc2ccc(F)c(C(=O)c3c[nH]c4ncc(-c5cnn(C)c5)cc34)c2F)cc1 [Compound P-0021, N-{2,4-Difluoro-3-[5-(1-methyl-1H-pyrazol-4-yl)-1H-pyrrolo[2,3-b]pyridine-3-carbonyl]-phenyl}-4-propyl-benzenesulfonamide] |
| ≤ 10 | ≤ 10 | ≤ 10 | ≤ 10 | ≤ 10 | – | ≤ 10 | ≤ 10 | – | – | – | – | ≤ 10 | Cc1cnc(-c2cnc3[nH]cc(C(=O)c4c(F)ccc(NS(=O)(=O)c5ccc(C(F)(F)F)cc5)c4F)c3c2)[nH]1 [Compound P-0025, N-{2,4-Difluoro-3-[5-(5-methyl-1H-imidazol-2-yl)-1H-pyrrolo[2,3-b]pyridine-3-carbonyl]-phenyl}-4-trifluoromethyl-benzenesulfonamide] |
| ≤ 10 | ≤ 10 | ≤ 10 | – | ≤ 10 | ≤ 10 | ≤ 10 | – | – | ≤ 10 | – | – | – | O=C(c1c(F)ccc(NS(=O)(=O)c2ccc(-c3ccno3)s2)c1F)c1c[nH]c2ncc(Cl)cc12 [Compound P-0006, 5-Isoxazol-5-yl-thiophene-2-sulfonic acid [3-(5-chloro-1H-pyrrolo[2,3-b]pyridine-3-carbonyl)-2,4-difluoro-phenyl]-amide] |
| ≤ 10 | – | – | ≤ 10 | ≤ 10 | – | ≤ 10 | ≤ 10 | – | – | – | – | – | CCCc1ccc(S(=O)(=O)Nc2ccc(F)c(C(=O)c3c[nH]c4ncc(-c5nccn5C)cc34)c2F)cc1 [Compound P-0026, N-{2,4-Difluoro-3-[5-(1-methyl-1H-imidazol-2-yl)-1H-pyrrolo[2,3-b]pyridine-3-carbonyl]-phenyl}-4-propyl-benzenesulfonamide] |
| ≤ 10 | ≤ 10 | ≤ 10 | – | ≤ 10 | – | ≤ 10 | ≤ 10 | – | – | – | – | ≤ 10 | Cc1c[nH]c(-c2cnc3[nH]cc(C(=O)c4c(F)ccc(NS(=O)(=O)c5ccc(C(C)C)cc5)c4F)c3c2)n1 [Compound P-0019, N-{2,4-Difluoro-3-[5-(4-methyl-1H-imidazol-2-yl)-1H-pyrrolo[2,3-b]pyridine-3-carbonyl]-phenyl}-4-isopropyl-benzenesulfonamide] |
| ≤ 10 | ≤ 10 | ≤ 10 | – | ≤ 10 | ≤ 10 | ≤ 10 | ≤ 10 | – | – | ≤ 10 | – | – | CC(C)c1ccc(S(=O)(=O)Nc2ccc(F)c(C(=O)c3c[nH]c4ncc(-c5cnn(C)c5)cc34)c2F)cc1 [Compound P-0022, N-{2,4-Difluoro-3-[5-(1-methyl-1H-pyrazol-4-yl)-1H-pyrrolo[2,3-b]pyridine-3-carbonyl]-phenyl}-4-isopropyl-benzenesulfonamide] |
| ≤ 10 | ≤ 10 | ≤ 10 | – | ≤ 10 | ≤ 10 | ≤ 10 | ≤ 10 | – | ≤ 10 | – | – | – | O=C(c1c(F)ccc(NS(=O)(=O)c2ccc3oc(=O)ccc3c2)c1F)c1c[nH]c2ncc(Cl)cc12 [Compound P-0005, 2-Oxo-2H-chromene-6-sulfonic acid [3-(5-chloro-1H-pyrrolo[2,3-b]pyridine-3-carbonyl)-2,4-difluoro-phenyl]-amide] |

From patent US7863289B2, “Compounds and methods for kinase modulation, and indications therefor” (Plexxikon, Inc., priority 2006, dated 2011)
